Laboratory results reported in PubChem BioAssay (NCI).
Values joined by “and” are separate entries in the source; they are usually repeats but may differ in a detail not shown here. Identical values can stand only once.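 Tested at 5 concentrations; 48 h exposure; 96-well plates; endpoints linearly interpolated, else capped at highest concentration. GI50 is the concentration that inhibits growth by half. TGI denotes the concentration required for complete inhibition of growth.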

Columns and labels:
Assay in all cases: NCI tumour cell line growth inhibition, 48 h
MDA-MB-435 = tested on: MDA-MB-435
DU-145 prostate = tested on: DU-145 prostate
KM20L2 colon = tested on: KM20L2 colon
DLD-1 colon = tested on: DLD-1 colon
MDA-N = tested on: MDA-N

Compound | GI50 (MDA-MB-435) [µM] | TGI (MDA-MB-435) [µM] | GI50 (DU-145 prostate) | TGI (DU-145 prostate) | TGI (KM20L2 colon) [µM] | TGI (DLD-1 colon) [µM] | GI50 (MDA-N) [µM] | TGI (MDA-N) [µM]
Clc1ccc(Nc2ncnc3ccccc23)cc1 | 42.2 | > 100 | 26.4 µM | > 100 µM |  |  |  | 
CO[C@@H]1[C@H](N(C)C(=O)c2ccccc2)C[C@@H]2O[C@]1(C)n1c3ccccc3c3c4c(c5c6ccccc6n2c5c31)C(=O)NC4=O | 0.775 | > 100 | 6.81 µM | > 100 µM |  |  |  | 
CC[C@H]1[C@@H](C)C=C[C@@H](C)N1S(=O)(=O)c1ccc(C)cc1 |  |  |  |  | > 100 |  |  | 
NNC(=S)N/N=C/c1ccccn1 | 5.2 | > 100 | 1.85 µM | > 100 µM |  |  |  | 
Fc1ccc(-c2nn3c(COc4ccccc4Cl)nnc3s2)cc1Oc1ccccc1 | 33.2 | > 100 | 39 µM | > 100 µM |  |  |  | 
O=C1C2=C(c3ccccc31)C(c1ccccc1Cl)NC(=S)N2 (stereo not given) |  |  |  |  | > 100 | > 100 |  | 
CN(CCNc1ccc(C(=N)N)cc1)c1ccc(C(=N)N)cc1 | 66.3 | > 100 | 19.2 µM | > 100 µM |  |  |  | 
O=C(/C=C/c1cccnc1)c1ccccc1 | 12.4 | 26.7 | 13.9 µM | 26.9 µM |  |  |  | 
CC[C@@]1(O)C(=O)OCc2c1cc1n(c2=O)Cc2cc3c(OC)cccc3nc2-1 |  |  | 0.00266 µM |  | > 23.6 | 19.3 | > 100 | > 100
CC[n+]1c(/C=C/c2ccc(N3CCCC3)cc2)cccc1/C=C/c1ccc(N2CCCC2)cc1 | 0.343 | 2.34 | 0.312 µM and 0.24 µM | 1.19 µM and 1.22 µM |  |  |  | 
O=C(CSc1nc2ccc([N+](=O)[O-])cc2[nH]1)Nc1ccc([N+](=O)[O-])cc1 | 2.66 | 12.7 | 3.51 µM | 15.6 µM |  |  |  | 
O=P1(O)c2ccccc2CSCc2ccccc21 |  | > 100 |  | > 100 µM |  |  |  | > 100
CCOC(=O)c1c2c(n(Cc3ccccc3)c1C)-c1nc[nH]c1C(=O)C2=O | 16.9 | 31.3 | 9.83 µM | 21.5 µM |  |  |  | 
O=C(O)COc1ccc2c3c1C(=O)CCC3CO2 (stereo not given) |  |  |  |  | > 100 | > 100 |  | 
OCC(O)COc1ccc(F)cc1 (stereo not given) |  |  |  |  | > 100 | > 100 |  | 
c1ccc2c(CNCCCN3CCN(CCCNCc4cccc5ccccc45)CC3)cccc2c1 |  |  |  |  | 3.18 | 3.69 |  | 
COc1ccc(C(=O)O[C@@H]2CCN3CC[C@H](C)[C@H]23)cc1 |  | > 100 |  | > 100 µM |  |  |  | > 100
Cc1cn2c(/C=N/NC3=NCCN3)c(-c3ccc(Cl)c([N+](=O)[O-])c3)nc2s1 |  |  | 0.789 µM | 1.89 µM |  |  |  | 
CC1=CC=C2C(C)(C)CC[C@@H]3OC(=O)[C@H]1[C@]23C |  |  |  |  | > 100 | > 100 |  | 
